From article PMC12257413, “Discovery of a Novel sp^3‑Rich M1 Positive Allosteric Modulators (PAMs) Chemotype via Scaffold Hopping” (ACS Medicinal Chemistry Letters, 2025)
In brackets after ≈: the same amount, converted by molar mass. Where two headings read alike, the source gives them in different places.

How the values were obtained:
[1] = target: T1, human muscarinic receptor subtype 1 (M1) (Homo sapiens, UniProt P11229); experiment: Calcium mobilization assay in hM1-CHO cells, PAM activity with EC20 acetylcholine; format: cell-based; conditions: for EC50: read-out: hM1 pEC50 ± SEM (converted)
T1 sequence (P11229 1-460): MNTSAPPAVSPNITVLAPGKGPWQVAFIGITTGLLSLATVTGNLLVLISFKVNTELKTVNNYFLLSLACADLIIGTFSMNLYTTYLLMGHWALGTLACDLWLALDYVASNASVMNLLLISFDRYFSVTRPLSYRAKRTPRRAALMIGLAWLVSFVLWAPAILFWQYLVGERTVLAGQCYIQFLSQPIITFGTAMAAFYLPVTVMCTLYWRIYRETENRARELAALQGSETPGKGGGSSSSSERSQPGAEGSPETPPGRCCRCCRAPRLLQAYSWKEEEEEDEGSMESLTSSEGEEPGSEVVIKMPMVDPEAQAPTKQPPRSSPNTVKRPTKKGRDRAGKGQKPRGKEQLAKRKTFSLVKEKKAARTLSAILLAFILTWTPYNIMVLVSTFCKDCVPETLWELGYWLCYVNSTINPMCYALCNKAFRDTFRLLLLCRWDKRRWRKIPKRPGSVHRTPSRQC
Method: page 2: Procedures for Biological Experiments Calcium mobilization assays: To measure the functional activity of positive allosteric modulator (PAM) compounds in a cellular assay, human or rat muscarinic receptor subtype 1 (M1) was stably expressed in the Chinese hamster ovary (CHO) cells to evoke an increase in intracellular calcium to an EC20 concentration of acetylcholine (ACh) agonist. The stable M1-CHO cells were cultured in F12 medium containing 10% fetal bovine serum, 20 mM HEPES, 100 units/mL antibiotics/antimycotic, 0.5 mg/ml G418. All reagents used were from Life Technologies (Carlsbad, CA) unless otherwise noted. Briefly, the day before the assay, stable M1-CHO cells (15,000 cells/20 μL/well) were plated in black-walled, clear-bottomed, 384 well plates (Greiner Bio-One, Monroe, NC) in the culture medium without G418, and then incubated overnight at 37 °C in the presence of 5% CO2. The next day, calcium assay buffer (Hank’s balanced salt solution (HBSS), 20 mM HEPES, 2.5 mM Probenecid, 4.16 mM sodium bicarbonate (Sigma-Aldrich, St. Louis, MO) was prepared to dilute […] calcium indicator dye. […] curves in DMSO using the Bravo Liquid Handler (Agilent, Santa Clara, CA), transferred to a 384 well daughter plates using an Echo acoustic liquid handler (Beckman Coulter, Indianapolis, Indiana), and diluted in assay Buffer to a 2X final concentration. The agonist plates were prepared using acetylcholine (ACh, Sigma-Aldrich, St. Louis, MO) concentrations for the EC20 and ECMAX responses by diluting in assay buffer to a 5X final concentration. The 2X dye solution (2.3 µM) was prepared by mixing a 2.3 mM Fluo-4-AM stock in DMSO with 10% (w/v) pluronic acid F- 127 in a 1:1 ratio in assay buffer. Using a microplate washer (BioTek, Winooski, VT), cells were washed with assay buffer for 3 times to remove medium. After the final wash, 20 μL of assay buffer remained in the cell plates. Immediately, 20 μL of the 2X dye solution (final 1.15 µM) was added to each well of the cell plate using a Multidrop Combi dispenser (Thermo Fisher, Waltham, MA). After cells were incubated with the dye solutions for 45 min at 37 °C in the presence of 5% CO2, the dye solutions were removed and replaced with assay buffer using a microplate washer, leaving 20 μL of assay buffer in the cell plate. The compound, agonist, and cell plates were placed inside the Functional Drug Screening System uCell (FDSS uCell, Hamamatsu, Japan) to measure the calcium flux. The triple add protocol was used to measure Ca kinetics; Compound, ACh for EC20, and ACh for ECMAX adds in an order. Briefly, after establishment of a fluorescence baseline S2 page 3: for 2 seconds (excitation, 480 nm; emission, 530 nm), first add occurred by adding 20 µL of test compound to the cells, and the response was measured for 140 seconds. This is followed by second add; 10 µL (5X) of an EC20 concentration of ACh agonist was added to the cells, and the response of the cells was measured for 125 seconds. Immediately, the third add occurred by adding 12 ul assay buffer or 5X of an EC max concentration of ACh and the response of the cells was measured for 90 seconds. Assay buffer was added to the wells that incubated with compounds followed by EC20 concentration of ACh. Agonists containing ECmax concentration of ACh were added to the wells that incubated with DMSO and assay buffer from the 1st and 2nd adds to measure maximum Ca responses (ECmax). Calcium fluorescence was recorded as fold over basal fluorescence and raw data were normalized to the maximal response to ACh agonist. […]

Aqueous solubility = format: physicochemical; conditions: aqueous solution, aqueous buffer
[2] = pH 2.2, read-out: Solubility pH = 2.2
[3] = pH 6.8, read-out: Solubility pH = 6.8

| hM1 %ACh Max ± SEM [1] [%ACh Max] | EC50 [1] [nM] | solubility (Aqueous solubility; [2]) [µM] | solubility (Aqueous solubility; [3]) [µM] | SMILES |
| --- | --- | --- | --- | --- |
| 82 ± 3.4 | 427 | 84.6 (≈ 38 µg/mL) | 80.7 (≈ 36.3 µg/mL) | Cn1cc(-c2ccc(Cc3cc(C(=O)N[C@H]4CCOC[C@@H]4O)nn3C3CCCC3)cc2)cn1 [17g] |
| 82 ± 4.4 | 589 | 10.8 (≈ 4.83 µg/mL) | < 1.12 | Cn1cc(-c2ccc(Cc3cc(C(=O)N[C@H]4CCCC[C@@H]4O)nn3C3CCCC3)cc2)cn1 [17k] |
